Assay [1] deals with IDO1 (Homo sapiens, UniProt P14902). The assay can be described thus: IDO1 cellular assay in Hela cells stimulated with IFNγ. In kind it is cell-based. The settings on record: IFNγ 100 ng/mL, 300 uM L-tryptophan, about 48 hours, fluorescence readout.
The target of assay [2] is T1, TDO (Homo sapiens, UniProt P48775).
T1 construct: endogenous in cells; host or cells: SW48 cells (A2780 cells as low-TDO control)
Put plainly: TDO cellular assay in frozen SW48 cells. Type of assay: cell-based. The settings on record: 300 uM L-tryptophan, about 48 hours, fluorescence readout.

T1 sequence (P48775 whole entry): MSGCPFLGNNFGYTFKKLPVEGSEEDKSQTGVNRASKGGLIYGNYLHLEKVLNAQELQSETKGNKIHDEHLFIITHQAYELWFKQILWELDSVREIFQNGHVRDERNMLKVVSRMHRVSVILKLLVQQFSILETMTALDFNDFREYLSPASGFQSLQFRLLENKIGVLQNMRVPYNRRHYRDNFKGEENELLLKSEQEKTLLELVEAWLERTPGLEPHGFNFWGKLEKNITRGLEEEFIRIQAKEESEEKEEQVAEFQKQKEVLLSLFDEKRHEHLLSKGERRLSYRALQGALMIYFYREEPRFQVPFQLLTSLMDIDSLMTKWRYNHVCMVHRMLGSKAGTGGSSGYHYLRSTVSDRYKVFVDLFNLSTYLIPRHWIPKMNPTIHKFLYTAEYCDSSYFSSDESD
Chain of IDO1 (P14902 whole entry): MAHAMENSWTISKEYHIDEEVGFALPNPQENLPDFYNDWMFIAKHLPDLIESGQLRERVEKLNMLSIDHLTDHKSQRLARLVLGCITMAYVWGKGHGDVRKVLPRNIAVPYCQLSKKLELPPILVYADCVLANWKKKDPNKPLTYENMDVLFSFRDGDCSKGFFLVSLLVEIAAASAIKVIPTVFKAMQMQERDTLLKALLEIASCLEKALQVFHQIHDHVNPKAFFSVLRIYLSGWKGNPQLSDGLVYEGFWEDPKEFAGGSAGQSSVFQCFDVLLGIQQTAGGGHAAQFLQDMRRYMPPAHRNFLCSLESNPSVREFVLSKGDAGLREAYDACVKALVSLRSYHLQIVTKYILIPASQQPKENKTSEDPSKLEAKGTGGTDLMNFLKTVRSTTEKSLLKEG

As usually defined, the IC50 is the concentration needed to halve the response being measured. Low readings indicate greater potency in that assay, high ones weaker potency in that assay. Turning to `O=C(Nc1ccc(C2(C(=O)Nc3ccc(F)cc3)CCC2)cn1)C1CCCCC1` [Example 15, N-(5-{1-[(4-fluorophenyl)carbamoyl]cyclobutyl}pyridin-2-yl) cyclohexanecarboxamide], the results for the IC50 in assay [1] and in assay [2] were 10 nM and at least 10000 nM, respectively.
